From PubChem BioAssay AID248 (DTP/NCI, 2004)
Several values for one entry are separate records, joined by “and”; a condition that tells them apart may be missing. Identical values can stand only once. Inconclusive results and toxic doses are left out. No stated cut-off is given here; in the data, active means T/C of 150% or more; inactive means T/C below 125%.

Test system: L1210 leukemia ip in BDF1 mice, survival T/C
Assay: NCI In Vivo Anticancer Drug Screen. Data for tumor model L1210 Leukemia (intraperitoneal) in B6D2F1 (BDF1) mice
Settings: endpoint: mean survival time, higher = longer survival
In short: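 Mice bearing the transplanted tumor received compound or vehicle. Survival of the treated group was divided by that of the vehicle-treated control group to give the ratio.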

[1] = dose: 100.0 mg/kg/injection, schedule: Q04DX003 (ip), vehicle: saline
[2] = dose: 200.0 mg/kg/injection, schedule: Q04DX003 (ip), vehicle: saline
[3] = dose: 12.5 mg/kg/injection, schedule: Q01DX009 (ip), vehicle: saline with Tween-80
[4] = dose: 25.0 mg/kg/injection, schedule: Q01DX009 (ip), vehicle: saline with Tween-80
[5] = dose: 100.0 mg/kg/injection, schedule: Q04DX003 (ip), vehicle: saline with Tween-80
[6] = dose: 200.0 mg/kg/injection, schedule: Q04DX003 (ip), vehicle: saline with Tween-80
[7] = dose: 50.0 mg/kg/injection, schedule: Q01DX001 (ip), vehicle: saline with Tween-80
[8] = dose: 100.0 mg/kg/injection, schedule: Q01DX001 (ip), vehicle: saline with Tween-80
[9] = dose: 100.0 mg/kg/injection, schedule: Q01DX009 (ip), vehicle: saline with Tween-80
[10] = dose: 100.0 mg/kg/injection, schedule: Q04DX002 (ip), vehicle: saline with Tween-80
[11] = dose: 200.0 mg/kg/injection, schedule: Q01DX009 (ip), vehicle: saline with Tween-80
[12] = dose: 200.0 mg/kg/injection, schedule: Q04DX002 (ip), vehicle: saline with Tween-80
[13] = dose: 400.0 mg/kg/injection, schedule: Q04DX002 (ip), vehicle: saline with Tween-80
[14] = dose: 12.5 mg/kg/injection, schedule: Q04DX003 (ip), vehicle: saline with Tween-80
[15] = dose: 25.0 mg/kg/injection, schedule: Q04DX003 (ip), vehicle: saline with Tween-80
[16] = dose: 50.0 mg/kg/injection, schedule: Q01DX009 (ip), vehicle: saline with Tween-80
[17] = dose: 50.0 mg/kg/injection, schedule: Q04DX003 (ip), vehicle: saline with Tween-80

Measured: T/C

CC(C)(CO)N=Cc1ccccc1O.CC(C)(CO)N=Cc1ccccc1O.[Ni]
inactive: dose: 75.0 mg/kg/injection, schedule: Q01DX001 (ip), vehicle: other 110 % of control | dose: 150.0 mg/kg/injection, schedule: Q01DX001 (ip), vehicle: other 117 % of control

OCC(O)COc1cccc2cccnc12 (stereo not drawn)
inactive: [1] 110 % of control | [2] 101 % of control | dose: 400.0 mg/kg/injection, schedule: Q04DX003 (ip), vehicle: saline 103 % of control

c1ccc2c(CC3=NCCN3)cccc2c1
inactive: [3] 96 % of control | [4] 103 % of control

CCCCCCNC(=O)c1cccc(C(=O)NCCCCCC)c1
inactive: dose: 100.0 mg/kg/injection, schedule: Q04DX002 (ip), vehicle: Klucel (hydroxypropylcellulose) (HPC) 88 % of control | dose: 200.0 mg/kg/injection, schedule: Q04DX002 (ip), vehicle: Klucel (hydroxypropylcellulose) (HPC) 94 % of control | dose: 400.0 mg/kg/injection, schedule: Q04DX002 (ip), vehicle: Klucel (hydroxypropylcellulose) (HPC) 98 % of control

CC(=O)OC1C(NC(=O)OCc2ccccc2)CC(NC(=O)OCc2ccccc2)C(O)C1O (stereo not drawn)
inactive: [5] 94 % of control | [6] 88 % of control

COc1ccc(-c2cc(C(=O)O)c3cccc(C(F)(F)F)c3n2)cc1
inactive: [1] 90 % of control

CCCCCCCCCCCC(=O)NC(=S)Nc1ccc(C)c(C)c1
inactive: [7] 86 % of control | [8] 91 % of control | [9] 90 % of control and 91 % of control | [10] 103 % of control and 91 % of control | [5] 93 % of control | [11] 103 % of control and 105 % of control | [12] 94 % of control and 88 % of control | [6] 90 % of control | [13] 94 % of control and 91 % of control | dose: 400.0 mg/kg/injection, schedule: Q04DX003 (ip), vehicle: saline with Tween-80 88 % of control

Cc1ccc(S(=O)(=O)N(CC(=O)O)Cc2ccccc2)cc1
inactive: dose: 25.0 mg/kg/injection, schedule: Q01DX009 (ip), vehicle: sodium bicarbonate 104 % of control | dose: 50.0 mg/kg/injection, schedule: Q01DX009 (ip), vehicle: sodium bicarbonate 100 % of control | [8] 100 % of control | [9] 104 % of control | dose: 100.0 mg/kg/injection, schedule: Q01DX009 (ip), vehicle: sodium bicarbonate 98 % of control | dose: 200.0 mg/kg/injection, schedule: Q01DX001 (ip), vehicle: saline with Tween-80 97 % of control | [11] 110 % of control | dose: 200.0 mg/kg/injection, schedule: Q01DX009 (ip), vehicle: sodium bicarbonate 98 % of control | dose: 400.0 mg/kg/injection, schedule: Q01DX001 (ip), vehicle: saline with Tween-80 95 % of control | dose: 400.0 mg/kg/injection, schedule: Q01DX009 (ip), vehicle: saline with Tween-80 95 % of control and 112 % of control | dose: 400.0 mg/kg/injection, schedule: Q01DX009 (ip), vehicle: sodium bicarbonate 97 % of control | dose: 800.0 mg/kg/injection, schedule: Q01DX009 (ip), vehicle: saline with Tween-80 92 % of control | dose: 1600.0 mg/kg/injection, schedule: Q01DX009 (ip), vehicle: saline with Tween-80 117 % of control

OC(C(c1ccccc1)N1CCCCC1)C(O)(c1ccccc1)c1ccccc1 (stereo not drawn)
inactive: dose: 100.0 mg/kg/injection, schedule: Q01DX001 (ip), vehicle: saline sonified 97 % of control | dose: 200.0 mg/kg/injection, schedule: Q01DX001 (ip), vehicle: saline sonified 108 % of control | dose: 400.0 mg/kg/injection, schedule: Q01DX001 (ip), vehicle: saline sonified 93 % of control

COc1ccc(P(=S)(S)c2ccc(OC)cc2)cc1
inactive: dose: 100.0 mg/kg/injection, schedule: Q04DX003 (ip), vehicle: acetone 94 % of control | dose: 200.0 mg/kg/injection, schedule: Q04DX003 (ip), vehicle: acetone 100 % of control | dose: 400.0 mg/kg/injection, schedule: Q04DX003 (ip), vehicle: acetone 90 % of control

O=C(/C=C/c1ccccc1)CC(O)(C(F)(F)F)C(F)(F)F
inactive: dose: 100.0 mg/kg/injection, schedule: Q04DX003 (sc), vehicle: olive oil, sesame oil, peanut oil 113 % of control | dose: 200.0 mg/kg/injection, schedule: Q04DX003 (sc), vehicle: olive oil, sesame oil, peanut oil 113 % of control | dose: 400.0 mg/kg/injection, schedule: Q04DX003 (sc), vehicle: olive oil, sesame oil, peanut oil 108 % of control

CC(=Nc1c2c(nc3ccccc13)CCCC2)N(C)C
inactive: dose: 12.0 mg/kg/injection, schedule: Q04DX003 (ip), vehicle: Klucel (hydroxypropylcellulose) (HPC) 105 % of control | dose: 25.0 mg/kg/injection, schedule: Q04DX003 (ip), vehicle: Klucel (hydroxypropylcellulose) (HPC) 100 % of control | dose: 50.0 mg/kg/injection, schedule: Q04DX003 (ip), vehicle: Klucel (hydroxypropylcellulose) (HPC) 104 % of control

CN(C)/N=C/c1nccc2ccccc12
inactive: dose: 50.0 mg/kg/injection, schedule: Q01DX001 (ip), vehicle: saline 98 % of control | dose: 100.0 mg/kg/injection, schedule: Q01DX001 (ip), vehicle: saline 93 % of control | dose: 200.0 mg/kg/injection, schedule: Q01DX001 (ip), vehicle: saline 93 % of control

O=C(NCCCO)C1C(c2ccccc2)C1c1ccccc1 (stereo not drawn)
inactive: [10] 108 % of control | [12] 102 % of control | [13] 102 % of control

COc1ccc(N=NN(C)C)cc1
inactive: dose: 6.25 mg/kg/injection, schedule: Q01DX009 (ip), vehicle: saline with Tween-80 98 % of control | [3] 100 % of control | [14] 107 % of control | dose: 18.75 mg/kg/injection, schedule: Q01DX001 (ip), vehicle: saline with Tween-80 107 % of control | [4] 100 % of control | [15] 108 % of control | dose: 37.5 mg/kg/injection, schedule: Q01DX001 (ip), vehicle: saline with Tween-80 108 % of control | [16] 104 % of control | [17] 115 % of control | [5] 108 % of control

O=S(=O)(O)c1cc(O)c2cc(Nc3ccccc3)ccc2c1
inactive: dose: 50.0 mg/kg/injection, schedule: Q01DX009 (ip), vehicle: saline 96 % of control | dose: 100.0 mg/kg/injection, schedule: Q01DX009 (ip), vehicle: saline 93 % of control | [1] 89 % of control | dose: 200.0 mg/kg/injection, schedule: Q01DX009 (ip), vehicle: saline 102 % of control | [2] 100 % of control

COc1nc(C)c(C)[n+]([O-])n1
inactive: dose: 12.5 mg/kg/injection, schedule: Q01DX001 (ip), vehicle: saline with Tween-80 94 % of control | [3] 96 % of control | [14] 97 % of control | dose: 25.0 mg/kg/injection, schedule: Q01DX001 (ip), vehicle: saline with Tween-80 100 % of control | [4] 108 % of control | [15] 110 % of control | [7] 107 % of control | [16] 96 % of control | [17] 94 % of control

Sc1ccc(Cl)cc1.[Pb]
inactive: dose: 25.0 mg/kg/injection, schedule: Q01DX009 (ip), vehicle: gum acacia 94 % of control | dose: 25.0 mg/kg/injection, schedule: Q04DX002 (ip), vehicle: gum acacia 99 % of control | dose: 50.0 mg/kg/injection, schedule: Q01DX009 (ip), vehicle: gum acacia 94 % of control | dose: 50.0 mg/kg/injection, schedule: Q04DX002 (ip), vehicle: gum acacia 99 % of control | dose: 100.0 mg/kg/injection, schedule: Q04DX002 (ip), vehicle: gum acacia 96 % of control and 91 % of control | dose: 200.0 mg/kg/injection, schedule: Q04DX002 (ip), vehicle: gum acacia 102 % of control | dose: 400.0 mg/kg/injection, schedule: Q04DX002 (ip), vehicle: gum acacia 109 % of control

CCCCCCCCCCOC(=O)C[n+]1cccc(C(=O)Nc2ccc(Cl)cc2)c1
inactive: dose: 12.5 mg/kg/injection, schedule: Q04DX003 (ip), vehicle: saline 97 % of control | dose: 25.0 mg/kg/injection, schedule: Q04DX003 (ip), vehicle: saline 105 % of control | dose: 50.0 mg/kg/injection, schedule: Q04DX003 (ip), vehicle: saline 90 % of control
